Laboratory results taken from PMC7083880 (Nature Communications, 2020).
Where “and” joins values, the source holds several entries; their conditions need not be identical. Equal values may be shown once.

Assays:
Assay type in all cases: cell-based, human
[1] = system: firefly luciferase (Fluc) gene with UGA nonsense codon at position 109 in HeLa cells; test: Firefly luciferase readthrough assay, UGA PTC construct
Source text: To identify the compounds responsible for this activity, a semi-preparative HPLC fractionation protocol was used. […] (Fig. 1b). DMSO and G418 were used, respectively, as a negative and a positive control.
The value of each luciferase measurement is presented in the Source Data File. All data shown in c, d are representative of two independent experiments. Source data are provided as a Source Data file.
HeLa cells were transfected with the FLuc-int-UGA construct using lipofectamine 3000 (Life technologies) according to the manufacturer’s recommendations. […] Steadylite plus luciferase substrate (Perkin Elmer, Waltham, MA, USA) was then added to each well before measuring the visible light from each well for 10 s with a Tristar luminometer (Berthold technologies, Versailles, France). The plate was read twice and the reported values are averages of the two reads.

[2] = system: firefly luciferase (Fluc) gene with UAG nonsense codon at position 109 in HeLa cells; test: Firefly luciferase readthrough assay, UAG PTC construct
[3] = system: p53 readthrough protein in Calu-6 cells; test: p53 function: luciferase under promoter with two p53-responsive elements, Calu-6
Source text: The three leftmost lanes show twofold serial dilutions of untreated HeLa cell extract. The molecular weight is indicated to the left of each gel. b Schematic representation of the construct used to measure the function of p53. The construct carries a cDNA encoding the firefly luciferase under a promoter having two p53-responsive elements (underlined). […] The level of p21 mRNA is related to the amount of functional p53 protein synthesized in the cell. The results presented in panels b and c are representative of at least two independent experiments., p-values (p) were calculated using Student’s t-test. Source data are provided as a Source Data file.
Although DAP clearly promoted the synthesis of full-length proteins from UGA-nonsense-mutation-containing mRNAs, it was necessary to ascertain that the readthrough protein was functional. […] The first involved measuring the transcriptional activity of the p53 readthrough protein in Calu-6 cells transfected with an expression vector carrying the cDNA encoding firefly luciferase under the control of a promoter with two p53-responsive elements (Fig. 2b)[33]. Upon DMSO treatment, only basal luciferase activity was detected, reflecting promoter leakage (Fig. 2c). […] The second assay used the p53 target gene p21 (ref. [44]).

[4] = system: wild-type TP53 in HeLa cells; test: p53 function: luciferase under promoter with two p53-responsive elements, HeLa
[5] = system: firefly luciferase (Fluc) gene with UAA nonsense codon at position 109 in HeLa cells; test: Firefly luciferase readthrough assay, UAA PTC construct
[6] = system: nonsense-mediated mRNA decay (NMD) in Calu-6 cells; test: NMD efficiency: p53 mRNA / GAPDH mRNA by RT-PCR; conditions: 24 h, both tested concentrations
Protocol: Source data are provided as a Source Data file.
Total RNA was purified from Calu-6 cells after 24 h of treatment.
RNA was purified using RNazol (MRC) according to the manufacturer’s instructions. 1/5 of the RNA preparation was used for reverse-transcription (RT) PCR (RT-PCR) using Superscript II (Life Technologies) for 2 h at 42 °C in the presence of random hexamers. The resulting cDNAs were PCR amplified in the presence of dCTP(α^33P) (Perkin Elmer) with the following primers: GAPDH mRNA (sense: 5′-[…]-3′; antisense: 5′-[…]-3′), p53 mRNA (sense: 5′-[…]-3′; antisense: 5′-[…]-3′), p21 mRNA (sense: 5′-[…]-3′; antisense: 5′-[…]-3′). PCR products were quantified with Personal Molecular Imager and QuantityOne quantification software (Bio-Rad).

[7] = DAP 3.75µM, average of 2 experiments
[8] = DAP 37.5µM, average of 2 experiments

Compound: Nc1nc(N)c2[nH]cnc2n1 [DAP, 2,6-diaminopurine]
- Luciferase activity, UGA PTC, dose response ([1]; 0.39µM, Exp. 1): 1186.95
- Luciferase activity, UGA PTC, dose response ([1]; 0.39µM, Exp. 2): 737.25
- Luciferase activity, UGA PTC, dose response ([1]; 0.39µM, average): 962±318 and 962.101
- Luciferase activity, UGA PTC, dose response ([1]; 0.78µM, Exp. 1): 1503.98
- Luciferase activity, UGA PTC, dose response ([1]; 0.78µM, Exp. 2): 977.5
- Luciferase activity, UGA PTC, dose response ([1]; 0.78µM, average): 1241±372 and 1240.74
- Luciferase activity, UGA PTC, dose response ([1]; 1.56µM, Exp. 1): 2085.73
- Luciferase activity, UGA PTC, dose response ([1]; 1.56µM, Exp. 2): 1374.25
- Luciferase activity, UGA PTC, dose response ([1]; 1.56µM, average): 1730±503 and 1729.99
- Luciferase activity, UGA PTC, dose response ([1]; 6.25µM, Exp. 1): 7245.46
- Luciferase activity, UGA PTC, dose response ([1]; 6.25µM, Exp. 2): 4897.5
- Luciferase activity, UGA PTC, dose response ([1]; 6.25µM, average): 6071±1660 and 6071.48
- Luciferase activity, UGA PTC, dose response ([1]; 25µM, Exp. 1): 48084
- Luciferase activity, UGA PTC, dose response ([1]; 25µM, Exp. 2): 33252.2
- Luciferase activity, UGA PTC, dose response ([1]; 25µM, average): 40668±10487 and 40668.1
- Luciferase activity, UGA PTC, dose response ([1]; 100µM, Exp. 1): 351175
- Luciferase activity, UGA PTC, dose response ([1]; 100µM, Exp. 2): 246890
- Luciferase activity, UGA PTC, dose response ([1]; 100µM, average): 299032±73740 and 299033
- Luciferase activity, UGA PTC, dose response ([1]; 300µM, Exp. 1): 257964
- Luciferase activity, UGA PTC, dose response ([1]; 300µM, Exp. 2): 190894
- Luciferase activity, UGA PTC, dose response ([1]; 300µM, average): 224429±47425 and 224429
- Luciferase activity, UGA PTC, dose response ([1]; 600µM, Exp. 1): 134395
- Luciferase activity, UGA PTC, dose response ([1]; 600µM, Exp. 2): 97365.8
- Luciferase activity, UGA PTC, dose response ([1]; 600µM, average): 115880±26184 and 115881
- Luciferase activity, UGA PTC [1, 7]: 20599.75±1015 and 20599.8
- Luciferase activity, UGA PTC ([1]; DAP 3.75µM, experiment 1): 19882
- Luciferase activity, UGA PTC ([1]; DAP 3.75µM, experiment 2): 21317.5
- Luciferase activity, UGA PTC [1, 8]: 35939.75±1176 and 35939.8
- Luciferase activity, UGA PTC ([1]; DAP 37.5µM, experiment 1): 36771
- Luciferase activity, UGA PTC ([1]; DAP 37.5µM, experiment 2): 35108.5
- Concentration of maximal efficacy, UGA readthrough (luciferase) ([1]; Fig. 1D, peer review file): 100 µM
- Correction of the UGA nonsense mutation (luciferase activity), in words ([1]; Fig. 1c): exclusive correction of the UGA nonsense mutation
- EC50 ([1]; Homo sapiens, Fig. 1D, authors' reply in peer review file, removed from final text): ~50 µM
- Luciferase activity, UAG PTC [2, 7]: 366.5±43 and 366.5
- Luciferase activity, UAG PTC ([2]; DAP 3.75µM, experiment 1): 336
- Luciferase activity, UAG PTC ([2]; DAP 3.75µM, experiment 2): 397
- Luciferase activity, UAG PTC [2, 8]: 451.5±145 and 451.5
- Luciferase activity, UAG PTC ([2]; DAP 37.5µM, experiment 1): 349
- Luciferase activity, UAG PTC ([2]; DAP 37.5µM, experiment 2): 554
- Luciferase activity under p53-responsive promoter, in words [3]: significantly increased
- Luciferase activity, p53-responsive promoter construct (DMSO = 1) ([3]; 6.25µM, average): 1.454
- Luciferase activity, p53-responsive promoter construct (DMSO = 1) ([3]; 6.25µM, experiment 1): 1.606
- Luciferase activity, p53-responsive promoter construct (DMSO = 1) ([3]; 6.25µM, experiment 2): 1.415
- Luciferase activity, p53-responsive promoter construct (DMSO = 1) ([3]; 6.25µM, experiment 3): 1.341
- Luciferase activity, p53-responsive promoter construct (DMSO = 1) ([3]; 25µM, average): 2.545
- Luciferase activity, p53-responsive promoter construct (DMSO = 1) ([3]; 25µM, experiment 1): 2.235
- Luciferase activity, p53-responsive promoter construct (DMSO = 1) ([3]; 25µM, experiment 2): 2.893
- Luciferase activity, p53-responsive promoter construct (DMSO = 1) ([3]; 25µM, experiment 3): 2.507
- Luciferase activity, p53-responsive promoter construct (DMSO = 1) ([4]; 6.25µM, FL922): 0.8852
- Luciferase activity, p53-responsive promoter construct (DMSO = 1) ([4]; 6.25µM, FL932): 0.9803
- Luciferase activity, p53-responsive promoter construct (DMSO = 1) ([4]; 6.25µM, FL934): 0.8382
- Luciferase activity, p53-responsive promoter construct (DMSO = 1) ([4]; 6.25µM, average): 0.9012
- Luciferase activity, p53-responsive promoter construct (DMSO = 1) ([4]; 25µM, FL922): 0.7844
- Luciferase activity, p53-responsive promoter construct (DMSO = 1) ([4]; 25µM, FL932): 0.8921
- Luciferase activity, p53-responsive promoter construct (DMSO = 1) ([4]; 25µM, FL934): 1.092
- Luciferase activity, p53-responsive promoter construct (DMSO = 1) ([4]; 25µM, average): 0.9228
- Luciferase activity under p53-responsive promoter, in words ([4]; wild-type TP53): failure of DAP to cause a luciferase activity increase
- Luciferase activity, UAA PTC [5, 7]: 370.75±86 and 370.75
- Luciferase activity, UAA PTC ([5]; DAP 3.75µM, experiment 1): 310
- Luciferase activity, UAA PTC ([5]; DAP 3.75µM, experiment 2): 431.5
- Luciferase activity, UAA PTC [5, 8]: 610.75±408 and 610.75
- Luciferase activity, UAA PTC ([5]; DAP 37.5µM, experiment 1): 322.5
- Luciferase activity, UAA PTC ([5]; DAP 37.5µM, experiment 2): 899
- NMD inhibition, in words [6]: failed to inhibit NMD significantly
